Tests used:
[1] = in vitro intrinsic clearance; assay type: in vitro ADME; details: metabolic stability, details in SI
[2] = solubility at different pH values; assay type: physicochemical; details: at all measured pH values
[3] = test system: CFTR, cystic fibrosis transmembrane conductance regulator; experiment: CFTR rescue activity; assay type: cell-based; details: result given in words only; RC50 value is in Fig. 4b, which could not be read

Structure (SMILES) | in vitro intrinsic clearance (CLint) [1] [μL/min/10^6 cells] | solubility compared to the parent benzene-containing drug [2] | activity (half-maximal rescue concentration, RC50) [3] | in vitro intrinsic clearance (CLint) ([1]; listed as Cuba-Lumacaftor) [μL/min/10^6 cells]
Cc1ccc(NC(=O)C2(c3ccc4c(c3)OC(F)(F)O4)CC2)nc1-c1cccc(C(=O)O)c1 [compound 57, reference compound] | 11.96 |  |  | 
CCN(CC)CCNC(=O)C12C3C4C1C1C2C3C41NC(C)=O (stereo not drawn) [compound 58, Cuba-Acecainide] | < 7 |  |  | 
Cc1ccc(NC(=O)C2(c3ccc4c(c3)OC(F)(F)O4)CC2)nc1C12C3C4C5C3C1C5(C(=O)O)C42 (stereo not drawn) [compound 56, Cuba-Lumacaftor] | < 7 | improved solubility | high activity | 6.98
